From ChEMBL document CHEMBL3046113, “Evaluation of fungicides and sterilants for potential application in the management of Fusarium wilt of banana” (Crop Prot, 2007)
Calls of active or inactive are those of the source. The rule behind the calls is not given here.

Key:
Fusarium odoratissimum [1] = assay: Growth inhibition of Fusarium oxysporum f. sp. cubense race 4 isolate CAV 031 at 100 ug/ml after 7 days; format: functional, organism-based
Fusarium odoratissimum [2] = assay: Growth inhibition of Fusarium oxysporum f. sp. cubense race 4 isolate CAV 031 at 50 ug/ml after 7 days; format: functional, organism-based
Fusarium odoratissimum [3] = assay: Growth inhibition of Fusarium oxysporum f. sp. cubense race 4 isolate CAV 031 at 10 ug/ml after 7 days; format: functional, organism-based
Fusarium odoratissimum [4] = assay: Growth inhibition of Fusarium oxysporum f. sp. cubense race 4 isolate CAV 031 at 1 ug/ml after 7 days; format: functional, organism-based
Fusarium odoratissimum [5] = assay: Antifungal activity against Fusarium oxysporum f. sp. cubense race 4 at 10 times recommended dose incubated with 10^2 spore/ml for 5 min measured after 4 days; format: functional, organism-based
Fusarium odoratissimum [6] = assay: Antifungal activity against Fusarium oxysporum f. sp. cubense race 4 incubated with 10^2 spore/ml for 5 to 30 min measured after 4 days; format: functional, organism-based
Fusarium odoratissimum [7] = assay: Antifungal activity against Fusarium oxysporum f. sp. cubense race 4 at 0.01 times recommended dose incubated with 10^2 spore/ml for 5 min measured after 4 days; format: functional, organism-based
Fusarium odoratissimum [8] = assay: Antifungal activity against Fusarium oxysporum f. sp. cubense race 4 incubated with 10^2 spore/ml for 5 min measured after 4 days; format: functional, organism-based
Fusarium odoratissimum [9] = assay: Antifungal activity against Fusarium oxysporum f. sp. cubense race 4 infected in Cavendish banana plant assessed as reduction in disease severity at 25 ug a.i./ml applied as soil drench treatment 1 week after planting measured after 7 weeks in greenhouse conditions; format: functional; set-up: scale not given: the % may be the effect or the level left
Fusarium odoratissimum [10] = assay: Antifungal activity against Fusarium oxysporum f. sp. cubense race 4 infected in Cavendish banana plant assessed as reduction in disease severity at 25 ug a.i./ml applied as soil drench treatment immediately after planting measured after 7 weeks in greenhouse conditions; format: functional; set-up: scale not given: the % may be the effect or the level left
Fusarium odoratissimum [11] = assay: Antifungal activity against Fusarium oxysporum f. sp. cubense race 4 infected in Cavendish banana plant assessed as reduction in disease severity at 25 ug a.i./ml applied as root dip treatment for 10 min measured after 7 weeks in greenhouse conditions; format: functional; set-up: scale not given: the % may be the effect or the level left
Fusarium odoratissimum [12] = assay: Growth inhibition of Fusarium oxysporum f. sp. cubense race 4 isolate CAV 086 at 5 ug/ml after 7 days; format: functional, organism-based
Fusarium oxysporum [13] = assay: Antifungal activity against Fusarium oxysporum infected tomato plant grown in hydroponic system applied as curative treatment relative to control; format: functional
Fusarium oxysporum [14] = assay: Antifungal activity against Fusarium oxysporum infected tomato plant grown in hydroponic system applied as preventive treatment relative to control; format: functional
Fusarium odoratissimum [15] = assay: Growth inhibition of Fusarium oxysporum f. sp. cubense race 4 isolate CAV 086 at 1 ug/ml after 7 days; format: functional, organism-based
Fusarium odoratissimum [16] = assay: Growth inhibition of Fusarium oxysporum f. sp. cubense race 4 isolate CAV 086 at 50 ug/ml after 7 days; format: functional, organism-based
Fusarium odoratissimum [17] = assay: Growth inhibition of Fusarium oxysporum f. sp. cubense race 4 isolate CAV 086 at 10 ug/ml after 7 days; format: functional, organism-based

Question: Which “growth inhibition (GI)” value (Fusarium odoratissimum [1]) does the source give for `CO/C=C(/C(=O)OC)c1ccccc1Oc1cc(Oc2ccccc2C#N)ncn1` here?
Answer: inactive

Question: And the “growth inhibition (GI)” value (Fusarium odoratissimum [2])?
Answer: inactive

Question: And the “growth inhibition (GI)” value (Fusarium odoratissimum [3])?
Answer: inactive

Question: What about the “growth inhibition (GI)” value (Fusarium odoratissimum [4]) of the same compound?
Answer: inactive

Question: For `CO/N=C(/C(=O)OC)c1ccccc1COc1ccccc1C`, which “growth inhibition (GI)” value (Fusarium odoratissimum [1]) is on record?
Answer: inactive

Question: And the “growth inhibition (GI)” value (Fusarium odoratissimum [2])?
Answer: inactive

Question: And the “growth inhibition (GI)” value (Fusarium odoratissimum [3])?
Answer: inactive

Question: And the “growth inhibition (GI)” value (Fusarium odoratissimum [4])?
Answer: inactive

Question: For `OCl`, which Activity (Fusarium odoratissimum [5]) is on record?
Answer: Active

Question: And the Activity (Fusarium odoratissimum [6])?
Answer: Active

Question: What about the Activity (Fusarium odoratissimum [7]) of the same compound?
Answer: inactive

Question: What about the Activity (Fusarium odoratissimum [8]) of the same compound?
Answer: Dose-dependent effect

Question: How did the Activity (Fusarium odoratissimum [9]) turn out when `CCCCNC(=O)n1c(NC(=O)OC)nc2ccccc21` [BENOMYL] was run?
Answer: 72.2%

Question: And the Activity (Fusarium odoratissimum [10])?
Answer: 22.2%

Question: And the Activity (Fusarium odoratissimum [11])?
Answer: 66.7%

Question: And the “growth inhibition (GI)” value (Fusarium odoratissimum [1])?
Answer: Active

Question: And the “growth inhibition (GI)” value (Fusarium odoratissimum [2])?
Answer: Active

Question: And the “growth inhibition (GI)” value (Fusarium odoratissimum [3])?
Answer: Active

Question: What about the “growth inhibition (GI)” value (Fusarium odoratissimum [12]) of the same compound?
Answer: Active

Question: With `CCCN(CCOc1c(Cl)cc(Cl)cc1Cl)C(=O)n1ccnc1` [PROCHLORAZ] as the compound, how does the Activity (Fusarium odoratissimum [5]) read?
Answer: Active

Question: What about the Activity (Fusarium odoratissimum [9]) of the same compound?
Answer: 50%

Question: What about the Activity (Fusarium oxysporum [13]) of the same compound?
Answer: 34.4%

Question: What about the Activity (Fusarium oxysporum [14]) of the same compound?
Answer: 69.9%

Question: And the Activity (Fusarium odoratissimum [8])?
Answer: Dose-dependent effect

Question: And the Activity (Fusarium odoratissimum [10])?
Answer: 38.9%

Question: What about the Activity (Fusarium odoratissimum [11]) of the same compound?
Answer: 77.8%

Question: And the “growth inhibition (GI)” value (Fusarium odoratissimum [15])?
Answer: Active

Question: What about the “growth inhibition (GI)” value (Fusarium odoratissimum [1]) of the same compound?
Answer: Active

Question: And the “growth inhibition (GI)” value (Fusarium odoratissimum [2])?
Answer: Active

Question: What about the “growth inhibition (GI)” value (Fusarium odoratissimum [3]) of the same compound?
Answer: Active

Question: And the “growth inhibition (GI)” value (Fusarium odoratissimum [4])?
Answer: Active

Question: And the “growth inhibition (GI)” value (Fusarium odoratissimum [16])?
Answer: Active

Question: And the “growth inhibition (GI)” value (Fusarium odoratissimum [17])?
Answer: Active

Question: Which results are given for `CCCC1COC(Cn2cncn2)(c2ccc(Cl)cc2Cl)O1` (stereo not drawn) [PROPICONAZOLE]?
Answer: Activity (Fusarium odoratissimum [9]): 52.8%; Activity (Fusarium odoratissimum [10]): 44.4%; Activity (Fusarium odoratissimum [11]): 75%; growth inhibition (GI) (Fusarium odoratissimum [1]): Active; growth inhibition (GI) (Fusarium odoratissimum [12]): Active
